Data taken from patent US7012041B2, “Phenylpyridazinones” (Bayer AG, priority 1995, dated 2006).

Assays:
Assay type in all cases: in vivo
[1] = test system: Maize; assay: Pre-emergence test/greenhouse; details: after three weeks
Experimental: (§1) • Solvent: 5 parts by weight of acetone • Emulsifier: 1 part by weight of alkylaryl polyglycol ether
(§2) To produce a suitable preparation of active compound, 1 part by weight of active compound is mixed with the stated amount of solvent, the stated amount of emulsifier is added and the concentrate is diluted with water to the desired concentration.
(§3) Seeds of the test plants are sown in normal soil. After 24 hours, the soil is watered or sprayed with the preparation of the active compound. It is advantageous to keep the amount of water per unit area constant. The concentration of the active compound in the preparation is immaterial, only the amount of active compound applied per unit area matters.
(§4) After three weeks, the degree of damage to the plants is rated in % damage by comparison with the development of the untreated control.
(§5) The figures denote: • 0%=no effect (like untreated control) • 100%=total destruction

[2] = test system: Chenopodium; assay: Pre-emergence test/greenhouse; details: after three weeks
Experimental: as §1, §2, §3, §4, §5

[3] = test system: Abutilon; assay: Pre-emergence test/greenhouse; details: for % damage Abutilon: after three weeks; for activity against Abutilon (% damage): application rate between 125 and 500 g/ha, span over the named compounds
Experimental: as §1, §2, §3, §4, §5

[4] = test system: Solanum; assay: Pre-emergence test/greenhouse; details: after three weeks
Experimental: as §1, §2, §3, §4, §5

[5] = test system: Sunflower; assay: Pre-emergence test/greenhouse; details: after three weeks
Experimental: as §1, §2, §3, §4, §5

[6] = test system: Galinsoga; assay: Pre-emergence test/greenhouse; details: after three weeks
Experimental: as §1, §2, §3, §4, §5

[7] = test system: Amaranthus; assay: Post-emergence test/greenhouse; details: after three weeks
Experimental: as §1, §2
(§6) Test plants which have a height of 5–15 cm are sprayed with the preparation of the active compound in such a way as to apply the particular amounts of active compound desired per unit area.
as §4, §5

[8] = test system: Veronica; assay: Post-emergence test/greenhouse; details: after three weeks
Experimental: as §1, §2, §6, §4, §5

[9] = test system: Chenopodium; assay: Post-emergence test/greenhouse; details: after three weeks
Experimental: as §1, §2, §6, §4, §5

[10] = test system: Wheat; assay: Post-emergence test/greenhouse; details: after three weeks
Experimental: as §1, §2, §6, §4, §5

[11] = test system: Polygonum; assay: Post-emergence test/greenhouse; details: after three weeks
Experimental: as §1, §2, §6, §4, §5

[12] = test system: Datura; assay: Post-emergence test/greenhouse; details: after three weeks
Experimental: as §1, §2, §6, §4, §5

Row | SMILES | % damage Maize ([1]; 500 g ai/ha) | % damage Chenopodium ([2]; 500 g ai/ha) | % damage Abutilon ([3]; 500 g ai/ha) | % damage Solanum ([4]; 500 g ai/ha) | % damage Sunflower ([5]; 500 g ai/ha) | % damage Galinsoga ([6]; 500 g ai/ha) | % damage Maize ([1]; 250 g ai/ha) | % damage Galinsoga ([6]; 250 g ai/ha) | % damage Abutilon ([3]; 250 g ai/ha) | activity against Abutilon (% damage) [3] | % damage Solanum ([4]; 250 g ai/ha) | further results
1 | Nc1cnn(-c2ccccc2)c(=O)c1Cl [(A), 5-Amino-4-chloro-2-phenyl-pyridazin-3-one, reference compound] | 0% | 50% | 20% | 40% | 100% | – | – | – | – | – | – | –
2 | Cc1cnn(-c2ccccc2)c(=O)c1Br [(B), 4-Bromo-5-methyl-2-phenyl-pyridazin-3-one, reference compound] | 0% | 50% | 0% | 50% | 0% | 30% | – | – | – | – | – | % damage Amaranthus ([7]; 250 g ai/ha): 30%; % damage Veronica ([8]; 250 g ai/ha): 40%; % damage Chenopodium ([9]; 250 g ai/ha): 50%; % damage Wheat ([10]; 250 g ai/ha): 30%; % damage Polygonum ([11]; 250 g ai/ha): 50%; % damage Datura ([12]; 250 g ai/ha): 80%
3 | Cc1cnn(-c2cc(F)c(C#N)cc2F)c(=O)c1 [Example 3, 2-(2,5-difluoro-4-cyano-phenyl)-5-methyl-pyridazin-3-one] | – | – | – | – | – | – | 0% | 100% | 100% | 100% | 90% | % damage Sunflower ([5]; 250 g ai/ha): 0%
4 | C#CCOc1cc(-n2nc(C)ccc2=O)c(F)cc1C#N [Example 7, 2-(2-fluoro-4-cyano-5-propargyloxy-phenyl)-6-methyl-pyridazin-3-one] | – | – | – | – | – | – | 0% | 95% | 100% | 100% | 100% | % damage Chenopodium ([2]; 250 g ai/ha): 100%; % damage Sunflower ([5]; 250 g ai/ha): 20%
5 | C#CC(C)Oc1cc(-n2ncc(C)cc2=O)c(F)cc1C#N (stereo not drawn) [Example 8, 2-(2-fluoro-4-cyano-5-but-1-ine-3-yl-oxy-phenyl)-5-methyl-pyridazin-3-one] | – | – | – | – | – | – | 0% | 100% | 100% | 100% | 100% | % damage Chenopodium ([2]; 250 g ai/ha): 100%; % damage Sunflower ([5]; 250 g ai/ha): 0%; % damage Amaranthus ([7]; 60 g ai/ha): 90%; % damage Veronica ([8]; 60 g ai/ha): 100%; % damage Chenopodium ([9]; 60 g ai/ha): 95%; % damage Wheat ([10]; 60 g ai/ha): 0%; % damage Polygonum ([11]; 60 g ai/ha): 100%; % damage Datura ([12]; 60 g ai/ha): 100%
6 | CCS(=O)(=O)Nc1cc(-n2nc(C)ccc2=O)c(F)cc1C#N [Example 15] | 0% | 100% | 100% | 95% | 0% | 80% | – | – | – | 100% | – | % damage Amaranthus ([7]; 250 g ai/ha): 100%; % damage Veronica ([8]; 250 g ai/ha): 95%; % damage Chenopodium ([9]; 250 g ai/ha): 95%; % damage Wheat ([10]; 250 g ai/ha): 5%; % damage Polygonum ([11]; 250 g ai/ha): 80%; % damage Datura ([12]; 250 g ai/ha): 90%
7 | C#CC(C)Oc1cc(-n2nc(C)ccc2=O)c(F)cc1C#N (stereo not drawn) [Example 16] | 10% | 100% | 100% | 100% | 20% | 100% | – | – | – | 100% | – | % damage Amaranthus ([7]; 60 g ai/ha): 100%; % damage Veronica ([8]; 60 g ai/ha): 90%; % damage Chenopodium ([9]; 60 g ai/ha): 95%; % damage Wheat ([10]; 60 g ai/ha): 5%; % damage Polygonum ([11]; 60 g ai/ha): 95%; % damage Datura ([12]; 60 g ai/ha): 100%
8 | CCS(=O)(=O)Nc1cc(-n2ncc(NC)c(Cl)c2=O)c(F)cc1C#N [Example 25] | 0% | 90% | 100% | 60% | – | 100% | – | – | – | 100% | – | –
9 | C#CC(CC)Oc1cc(-n2nc(C)ccc2=O)c(F)cc1C#N (stereo not drawn) [Example 29] | 0% | 100% | 100% | 100% | 0% | 100% | – | – | – | 100% | – | –
10 | CCS(=O)(=O)Nc1cc(-n2ncc(C)cc2=O)c(F)cc1C#N [Example 31] | – | – | – | – | – | – | 0% | 80% | 100% | 100% | 100% | % damage Sunflower ([5]; 250 g ai/ha): 0%; % damage Amaranthus ([7]; 60 g ai/ha): 100%; % damage Veronica ([8]; 60 g ai/ha): 90%; % damage Chenopodium ([9]; 60 g ai/ha): 80%; % damage Wheat ([10]; 60 g ai/ha): 5%; % damage Polygonum ([11]; 60 g ai/ha): 90%; % damage Datura ([12]; 60 g ai/ha): 100%
11 | CCS(=O)(=O)Nc1cc(-n2ncc(C)cc2=O)c(Cl)cc1Cl [Example 34] | 0% | 100% | 100% | 90% | 20% | 100% | – | – | – | 100% | – | –
12 | C#CC(CC)Oc1cc(-n2ncc(C)cc2=O)c(F)cc1C#N (stereo not drawn) [Example 35] | – | – | – | – | – | – | 0% | 100% | 100% | 100% | 100% | % damage Chenopodium ([2]; 250 g ai/ha): 100%; % damage Amaranthus ([7]; 60 g ai/ha): 95%; % damage Veronica ([8]; 60 g ai/ha): 95%; % damage Chenopodium ([9]; 60 g ai/ha): 95%; % damage Wheat ([10]; 60 g ai/ha): 20%; % damage Polygonum ([11]; 60 g ai/ha): 90%; % damage Datura ([12]; 60 g ai/ha): 100%
13 | Cc1cnn(-c2cc(OC(C)C)c(C#N)cc2F)c(=O)c1 [Example 36] | – | – | – | – | – | – | 10% | 90% | 100% | 100% | 100% | % damage Chenopodium ([2]; 250 g ai/ha): 100%
14 | C#CCOc1cc(-n2ncc(C)cc2=O)c(F)cc1C#N [Example 37] | – | – | – | – | – | – | – | – | – | – | – | % damage Amaranthus ([7]; 125 g ai/ha): 100%; % damage Veronica ([8]; 125 g ai/ha): 100%; % damage Chenopodium ([9]; 125 g ai/ha): 100%; % damage Wheat ([10]; 125 g ai/ha): 20%; % damage Polygonum ([11]; 125 g ai/ha): 100%; % damage Datura ([12]; 125 g ai/ha): 100%
15 | C#CCOc1cc(-n2ncc(N(C)C)c(Cl)c2=O)c(F)cc1C#N [Example 41] | – | – | – | – | – | – | – | – | – | 100% | – | % damage Maize ([1]; 125 g ai/ha): 10%; % damage Galinsoga ([6]; 125 g ai/ha): 100%; % damage Chenopodium ([2]; 125 g ai/ha): 100%; % damage Abutilon ([3]; 125 g ai/ha): 100%; % damage Solanum ([4]; 125 g ai/ha): 100%; % damage Sunflower ([5]; 125 g ai/ha): 0%; % damage Amaranthus ([7]; 250 g ai/ha): 60%; % damage Veronica ([8]; 250 g ai/ha): 100%; % damage Chenopodium ([9]; 250 g ai/ha): 90%; % damage Wheat ([10]; 250 g ai/ha): 20%; % damage Polygonum ([11]; 250 g ai/ha): 100%; % damage Datura ([12]; 250 g ai/ha): 100%
